Target: human PAD4 (hPAD4) (Homo sapiens, UniProt Q9UM07)
Test: RFMS human PAD4 functional assay (rapid-fire mass spectrum)
Format: biochemical
Conditions: 5 nM hPAD4 enzyme, 250 μM BAEE, 50 μM Calcium; 30 min preincubation, 90 min reaction at 37° C.
In short: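 PAD4 (10 nM) preincubated 30 min with compound (top final 50 μM), then BAEE substrate added in pH 7.5 HEPES buffer with DTT, 50 μM calcium, TPEN; 90 min at 37° C. After TCA quench, citrulline derivatized with phenyl glyoxal (4 mM final, 30 min, 37° C) and quantified by RapidFire MS against internal standard.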

Sequence of human PAD4 (hPAD4) (Q9UM07 whole entry): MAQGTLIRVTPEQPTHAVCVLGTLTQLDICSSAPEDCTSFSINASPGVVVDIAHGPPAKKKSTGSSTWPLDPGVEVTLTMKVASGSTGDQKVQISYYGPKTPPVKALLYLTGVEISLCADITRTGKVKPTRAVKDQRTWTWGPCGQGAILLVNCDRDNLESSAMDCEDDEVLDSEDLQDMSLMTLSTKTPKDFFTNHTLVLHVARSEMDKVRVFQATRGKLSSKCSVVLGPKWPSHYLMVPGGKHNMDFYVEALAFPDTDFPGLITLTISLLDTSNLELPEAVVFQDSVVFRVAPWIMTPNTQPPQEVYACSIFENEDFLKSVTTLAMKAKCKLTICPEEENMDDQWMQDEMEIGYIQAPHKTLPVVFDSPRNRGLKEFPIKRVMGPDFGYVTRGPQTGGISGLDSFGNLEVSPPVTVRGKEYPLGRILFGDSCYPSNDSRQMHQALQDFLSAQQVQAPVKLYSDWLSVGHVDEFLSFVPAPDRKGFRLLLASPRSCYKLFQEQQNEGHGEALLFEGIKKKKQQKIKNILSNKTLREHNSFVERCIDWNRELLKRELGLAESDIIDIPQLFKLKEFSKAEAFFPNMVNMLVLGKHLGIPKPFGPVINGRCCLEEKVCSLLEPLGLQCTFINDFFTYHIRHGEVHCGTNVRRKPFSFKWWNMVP

SMILES | IC50
COc1cc(C(=O)N2C[C@H]3CC[C@@H]2[C@@H]3N)cc2nc(-c3cc4cccnc4n3CC3CC3)n(CC3CN(c4ccccc4)C3)c12 [Example 50, (1R,4R,7R)-2-{2-[1-(cyclopropylmethyl)-1H-pyrrolo[2,3-b]pyridin-2-yl]-7-methoxy-1-[(1-phenylazetidin-3-yl)methyl]-1H-1,3-benzodiazole-5-carbonyl}-2-azabicyclo[2.2.1]heptan-7-amine] | 141 nM
COc1cnc(N2CC(Cn3c(-c4cc5cccnc5n4CC4CC4)nc4cc(C(=O)N5C[C@H]6CC[C@@H]5[C@@H]6N)cc(OC)c43)C2)cn1 [Example 33, (1R,4R,7R)-2-{2-[1-(cyclopropylmethyl)-1H-pyrrolo[2,3-b]pyridin-2-yl]-7-methoxy-1-{[1-(5-methoxypyrazin-2-yl)azetidin-3-yl]methyl}-1H-1,3-benzodiazole-5-carbonyl}-2-azabicyclo[2.2.1]heptan-7-amine] | 87 nM
COc1cc(C(=O)N2CC3CCC2[C@@H]3N)cc2nc(-c3cc4ccccc4n3C)n(Cc3cnn(C)c3)c12 (stereo partly drawn) [Example 513, (7R)-2-[7-methoxy-2-(1-methyl-1H-indol-2-yl)-1-[(1-methyl-1H-pyrazol-4-yl)methyl]-1H-1,3-benzodiazole-5-carbonyl]-2-azabicyclo[2.2.1]heptan-7-amine] | 391 nM
COc1cc(C(=O)N2CC3CCC2[C@@H]3N)cc2nc(-c3cc4cccnc4n3CC3CC3)n(Cc3cnn(-c4cncc(Cl)c4)c3)c12 (stereo partly drawn) [Example 383, (7R)-2-(1-{[1-(5-chloropyridin-3-yl)-1H-pyrazol-4-yl]methyl}-2-[1-(cyclopropylmethyl)-1H-pyrrolo[2,3-b]pyridin-2-yl]-7-methoxy-1H-1,3-benzodiazole-5-carbonyl)-2-azabicyclo[2.2.1]heptan-7-amine] | 41 nM
COc1cc(C(=O)N2C[C@H]3CC[C@@H]2[C@@H]3N)cc2nc(-c3cc4ccccc4n3CC3CC3)n(CC3CN(C(=O)c4cccc(Cl)c4)C3)c12 [Example 154, (1R,4R,7R)-2-(1-{[1-(3-chlorobenzoyl)azetidin-3-yl]methyl}-2-[1-(cyclopropylmethyl)-1H-indol-2-yl]-7-methoxy-1H-1,3-benzodiazole-5-carbonyl)-2-azabicyclo[2.2.1]heptan-7-amine] | 21 nM
COc1cc(C(=O)N2CC3CCC2[C@@H]3N)cc2nc(-c3cc4ccccc4n3CC3CC3)n(Cc3cnn(-c4cccc(O)n4)c3)c12 (stereo partly drawn) [Example 388, 6-[4-({5-[(7R)-7-amino-2-azabicyclo[2.2.1]heptane-2-carbonyl]-2-[1-(cyclopropylmethyl)-1H-indol-2-yl]-7-methoxy-1H-1,3-benzodiazol-1-yl}methyl)-1H-pyrazol-1-yl]pyridin-2-ol] | 43 nM
COc1cc(C(=O)N2C[C@H](N)C[C@@H](F)C2)cc2nc(-c3cc4ccccc4n3CC3CC3)n(CCCOc3ccc(C#N)cc3)c12 [Example 271, 4-(3-{5-[(3R,5R)-3-amino-5-fluoropiperidine-1-carbonyl]-2-[1-(cyclopropylmethyl)-1H-indol-2-yl]-7-methoxy-1H-1,3-benzodiazol-1-yl}propoxy)benzonitrile] | 145 nM
COc1cc(C(=O)N2C[C@H](N)C[C@@H](F)C2)cc2nc(-c3cc4cccnc4n3CC3CC3)n(Cc3cnn(C)c3C)c12 [Example 504, (3R,5R)-1-{2-[1-(cyclopropylmethyl)-1H-pyrrolo[2,3-b]pyridin-2-yl]-l-[(1,5-dimethyl-1H-pyrazol-4-yl)methyl]-7-methoxy-1H-1,3-benzodiazole-5-carbonyl}-5-fluoropiperidin-3-amine] | 158 nM
COc1cc(C(=O)N2C[C@H]3CC[C@@H]2[C@@H]3N)cc2nc(-c3cc4cccnc4n3CC3CC3)n(CC3CN(c4cnccn4)C3)c12 [Example 74, (1R,4R,7R)-2-{2-[1-(cyclopropylmethyl)-1H-pyrrolo[2,3-b]pyridin-2-yl]-7-methoxy-1-{[1-(pyrazin-2-yl)azetidin-3-yl]methyl}-1H-1,3-benzodiazole-5-carbonyl}-2-azabicyclo[2.2.1]heptan-7-amine] | 210 nM
COc1cc(C(=O)N2C[C@H]3CC[C@@H]2[C@@H]3N)cc2nc(-c3cc4cccnc4n3CC3CC3)n(C3CN(C(=O)c4ccnc(Cl)c4)C3)c12 [Example 98, (1R,4R,7R)-2-{1-[1-(2-chloropyridine-4-carbonyl)azetidin-3-yl]-2-[1-(cyclopropylmethyl)-1H-pyrrolo[2,3-b]pyridin-2-yl]-7-methoxy-1H-1,3-benzodiazole-5-carbonyl}-2-azabicyclo[2.2.1]heptan-7-amine] | 71 nM
COc1cc(C(=O)N2C[C@H]3CC[C@@H]2[C@@H]3N)cc2nc(-c3cc4cccnc4n3C)n(CC3CN(c4cncnc4C#N)C3)c12 [Example 78, 5-[3-({5-[(1R,4R,7R)-7-amino-2-azabicyclo[2.2.1]heptane-2-carbonyl]-7-methoxy-2-{1-methyl-1H-pyrrolo[2,3-b]pyridin-2-yl}-1H-1,3-benzodiazol-1-yl}methyl)azetidin-1-yl]pyrimidine-4-carbonitrile] | 373 nM
COc1cc(C(=O)N2C[C@H]3CC[C@@H]2[C@@H]3N)cc2nc(-c3csc4ccc(Cl)cc34)n(CC3CN(c4ccnc(C#N)n4)C3)c12 [Example 315, 4-[3-({5-[(1R,4R,7R)-7-amino-2-azabicyclo[2.2.1]heptane-2-carbonyl]-2-(5-chloro-1-benzothiophen-3-yl)-7-methoxy-1H-1,3-benzodiazol-1-yl}methyl)azetidin-1-yl]pyrimidine-2-carbonitrile] | 929 nM
COc1cc(C(=O)N2CC3CCC2[C@@H]3N)cc2nc(-c3cccn3CC3CC3)n(CC3CN(c4cncc(C#N)n4)C3)c12 (stereo partly drawn) [Example 313, 6-[3-({5-[(1R,4R,7R)-7-amino-2 azabicyclo[2.2.1]heptane-2-carbonyl]-2-[1-(cyclopropylmethyl)-1H-pyrro1-2-yl]-7-methoxy-1H-1,3-benzodiazol-1-yl}methyl)azetidin-1-yl]pyrazine-2-carbonitrile] | 403 nM
COc1cc(C(=O)N2C[C@H]3CC[C@@H]2[C@@H]3N)cc2nc(-c3cc4cc(Cl)ccc4n3C)n(CC3CN(c4ccnc(C#N)n4)C3)c12 [Example 42, 4-[3-({5-[(1R,4R,7R)-7-amino-2-azabicyclo[2.2.1]heptane-2-carbonyl]-2-(5-chloro-1-methyl-1H-indol-2-yl)-7-methoxy-1H-1,3-benzodiazol-1-yl}methyl)azetidin-1-yl]pyrimidine-2-carbonitrile] | 102 nM
COc1cc(C(=O)N2C[C@H]3CC[C@@H]2[C@@H]3N)cc2nc(-c3cc4cccnc4n3CC3CC3)n(CC3CCN(C(=O)c4ccnc(F)c4)CC3)c12 [Example 197, (1R,4R,7R)-2-{2-[1-(cyclopropylmethyl)-1H-pyrrolo[2,3-b]pyridin-2-yl]-1-{[1-(2-fluoropyridine-4-carbonyl)piperidin-4-yl]methyl}-7-methoxy-1H-1,3-benzodiazole-5-carbonyl}-2-azabicyclo[2.2.1]heptan-7-amine] | 117 nM
COc1cc(C(=O)N2C[C@H]3CC[C@@H]2[C@@H]3N)cc2nc(-c3cc4ccccc4n3CC3CC3)n(Cc3cccnc3)c12 [Example 246, (1R,4R,7R)-2-{2-[1-(cyclopropylmethyl)-1H-indol-2-yl]-7-methoxy-1-[(pyridin-3-yl)methyl]-1H-1,3-benzodiazole-5-carbonyl}-2-azabicyclo[2.2.1]heptan-7-amine] | 25 nM
COc1cc(C(=O)N2C[C@H]3CC[C@@H]2[C@@H]3N)cc2nc(-c3cc4cc(Cl)ccc4n3C)n(CC3CN(c4ccnc(C)n4)C3)c12 [Example 61, (1R,4R,7R)-2-[2-(5-chloro-1-methyl-1H-indol-2-yl)-7-methoxy-1-{[1-(2-methylpyrimidin-4-yl)azetidin-3-yl]methyl}-1H-1,3-benzodiazole-5-carbonyl]-2-azabicyclo[2.2.1]heptan-7-amine] | 187 nM
COc1cc(C(=O)N2C[C@H]3CC[C@@H]2[C@@H]3N)cc2nc(-c3cc4cccnc4n3C)n(C[C@H]3CCN(c4ccnc(C)n4)C3)c12 [Example 213, (1R,4R,7R)-2-(7-methoxy-2-{1-methyl-1H-pyrrolo[2,3-b]pyridin-2-yl}-1-{[(3S)-1-(2-methylpyrimidin-4-yl)pyrrolidin-3-yl]methyl}-1H-1,3-benzodiazole-5-carbonyl)-2-azabicyclo[2.2.1]heptan-7-amine] | 99 nM
COc1cc(C(=O)N2C[C@H](N)C[C@@H](F)C2)cc2nc(-c3cc4ccccc4n3CC3CC3)n(CCC3CCS(=O)(=O)CC3)c12 [Example 249, ((3R,5R)-3-amino-5-fluoropiperidin-1-yl)(2-(1-(cyclopropylmethyl)-1H-indol-2-yl)-1-(2-(1,1-dioxidotetrahydro-2H-thiopyran-4-yl)ethyl)-7-methoxy-1H-benzo[d]imidazol-5-yl)methanone] | 35 nM
COc1cc(C(=O)N2C[C@H]3CC[C@@H]2[C@@H]3N)cc2nc(-c3cc4cccnc4n3CC3CC3)n(C3CN(c4ccncn4)C3)c12 [Example 86, (1R,4R,7R)-2-{2-[1-(cyclopropylmethyl)-1H-pyrrolo[2,3-b]pyridin-2-yl]-7-methoxy-1-[1-(pyrimidin-4-yl)azetidin-3-yl]-1H-1,3-benzodiazole-5-carbonyl}-2-azabicyclo[2.2.1]heptan-7-amine] | 1680 nM
COc1nccnc1N1CC(Cn2c(-c3cc4cccnc4n3CC3CC3)nc3cc(C(=O)N4C[C@H]5CC[C@@H]4[C@@H]5N)cc(OC)c32)C1 [Example 43, (1R,4R,7R)-2-{2-[1-(cyclopropylmethyl)-1H-pyrrolo[2,3-b]pyridin-2-yl]-7-methoxy-1-{[1-(3-methoxypyrazin-2-yl)azetidin-3-yl]methyl}-1H-1,3-benzodiazole-5-carbonyl}-2-azabicyclo[2.2.1]heptan-7-amine] | 103 nM
COc1cc(C(=O)N2C[C@H](N)C[C@@H](F)C2)cc2nc(-c3cc4ccccc4n3CC3CC3)n(Cc3cnn(-c4ccccc4)c3)c12 [Example 261, (3R,5R)-1-{2-[1-(cyclopropylmethyl)-1H-indol-2-yl]-7-methoxy-1-[(1-phenyl-1H-pyrazol-4-yl)methyl]-1H-1,3-benzodiazole-5-carbonyl}-5-fluoropiperidin-3-amine] | 49 nM
